Results on 7 compounds are retold here after patent US10954258B2, “STAT3 dimerization inhibitors” (H. LEE MOFFITT CANCER CENTER AND RESEARCH INSTITUTE, INC., priority 2012, dated 2021).

What is called melting point is the temperature of the solid-liquid transition.

[ ]: non-standard residue; d: D form. pY = N[C@@H](Cc1ccc(OP(=O)(O)O)cc1)C(=O)O

In data set [1] the test system is P-STAT3 in the nucleus of MDA-MB-468 cells. Kind of data set: P-STAT3 nuclear accumulation by immunofluorescence. In kind it is cell-based, human. Particulars: 18 hours, various concentrations.
Protocol: MDA-MB-468 cells were plated at 4000 cells/well in 8-chamber slide. […] Cells were fixed, washed, and permeabilized as describe above. Specimens were then blocked in 1% bovine serum albumin (BSA) for 30 min and incubated with anti-pSTAT3 (Cell Signaling), antibody at 1:50 dilution at 4° C. overnight. Subsequently, cells were rinsed 4-5 times in PBS, incubated with Alexa Fluor secondary antibody for 1 hour at room temperature in the dark. Specimens were then washed 5 times with PBS, covered with cover slides with [sequence] mounting medium containing DAPI (Vector Lab, Inc., Burlingame, Calif.), and examined immediately under Zeiss Upright Fluorescence Microscope (Zeiss, Thornwood, N.Y., USA).
Data set [2] concerns STAT3-DNA binding activity in MDA-MB-468 and A-549 cells. Kind of data set: STAT3-DNA binding filter plate assay on nuclear extracts. It counts as cell-based, human. Particulars: 1, 2 or 4 hours. Here is the method: Nuclear extract preparation was carried out as described in Yu, et al., Science 1995; 269(5220):81-83. The STAT3-DNA binding filter plate assay was performed following the manual of the filter plate assay kit (Signosis, Sunnyvale, Calif.), as described for NFkB (Ying, et al., Blood 2011; 117(4):1301-1307). The TF Binding buffer was mixed with the STAT3 probe (biotin labeled STAT3 DNA binding sequence) and nuclear extract and incubated at 16° C. for 30 minutes to form the STAT3-DNA complex. The STAT3-DNA complex was then separated from free probe by using a filter plate. After several steps of binding and washing, bound STAT3 probe is retained on the filter in the corresponding well of Filer Plate and the free DNA probe is removed. The bound pre-labeled STAT3 probe was then eluted from the filter plate by centrifuge with elution buffer. Eluted probes were then hybridized into 96-well Hybridization Plate for quantitative analysis. The captured STAT3 probe was further detected by conjugation with streptavidin-HRP. The chemiluminescence of each well was detected by 2104 EnVisionR Multilabel Reader of PerkinElmer (Pekin Elmer, Waltham, Mass., USA) within 5 minutes after mixture with substrates. […]

The target of data set [3] is binding of FLAG-STAT3 to HA-STAT3 (Mus musculus, UniProt P42227). Kind of data set: co-immunoprecipitation of FLAG-STAT3 with HA-STAT3 in HEK293 cells. The conditions noted are these: HEK293 cells co-expressing FLAG- and HA-STAT3; treated 4 h. In kind it is cell-based, human. The protocol:
HEK-293/FLAG-STAT3/HA-STAT3 cells were treated for 4 h with vehicle, S3I-1757, S3I-1756, Ac-G{pTYR}LPQTV-[…]-NH2 (SEQ ID NO:3) or Ac-GYLPQTV-[…]-NH2 (SEQ ID NO:4) and then lysed in 20 mM Tris-HCl (pH 7.4), 5 mM EDTA, 10 mM Na4P2O7, 100 mM NaF, 2 mM Na3VO4, 1% NP-40.1 mM PMSF and 10 mg/ml aprotinin. For EGF stimulation group, HEK-293/FLAG-STAT3/HASTAT3 cells were treated by 100 ng/ml EGF for 30 minutes before making cell lysate. Protein A or G agarose (EMD Millipore, Billerica, Mass., USA) was washed twice with PBS and restore to 50% slurry with PBS. 500 μg of lysate were pre-cleared by mixture of protein A and protein G-agarose for 1 h at 4° C. and then remove protein A and G-agarose by centrifuge at 1300 rpm for 3 minutes. And then 500 μg of lysate was immunoprecipitated with 50 ng of HA antibody overnight at 4° C. on shaker and then capture the immunocomplex by adding 100 μl Protein A and G agarose/sepharose bead slurry for 1 hour at 4° C. Samples were washed five times with lysis buffer and then boiled in 5×SDS-PAGE sample buffer and run on SDS-PAGE gel. Protein was transferred to nitrocellulose membrane and then blotted as described above for HA, FLAG, pSTAT3, EGFR, and STAT3.
However, the FP assay only measured the ability of S3I-1757 to displace the 7 amino acid fluorescein-labelled GpYLPQTV phosphotyrosine peptide from the SH2 domain of STAT3 protein in vitro. Therefore, it was determined if the intracellular reciprocal binding of 2 full-length STAT3 proteins is inhibited. To this end, an assay was developed to measure directly STAT3-STAT3 dimerization in intact cells by cloning HA-tagged STAT3 and FLAG-tagged STAT3, generating HEK293 cells that stably co-express HA-STAT3 and FLAG-STAT3 and using these cells for coimmunoprecipitation and co-localization. […] This assay was validated by treating the FLAG-STAT3/HA-STAT3 HEK293 cells with tyrosine phosphorylated or nonphosphorylated GYLPQTV peptide fused to a membrane-translocating sequence (MTS) to allow cell uptake. […]

Data set [4] deals with human breast and liver cancer xenografts. The conditions noted are these: human breast and liver cancer xenografts in mouse models; cited from earlier work.

Sequence of binding of FLAG-STAT3 to HA-STAT3 (P42227 whole entry): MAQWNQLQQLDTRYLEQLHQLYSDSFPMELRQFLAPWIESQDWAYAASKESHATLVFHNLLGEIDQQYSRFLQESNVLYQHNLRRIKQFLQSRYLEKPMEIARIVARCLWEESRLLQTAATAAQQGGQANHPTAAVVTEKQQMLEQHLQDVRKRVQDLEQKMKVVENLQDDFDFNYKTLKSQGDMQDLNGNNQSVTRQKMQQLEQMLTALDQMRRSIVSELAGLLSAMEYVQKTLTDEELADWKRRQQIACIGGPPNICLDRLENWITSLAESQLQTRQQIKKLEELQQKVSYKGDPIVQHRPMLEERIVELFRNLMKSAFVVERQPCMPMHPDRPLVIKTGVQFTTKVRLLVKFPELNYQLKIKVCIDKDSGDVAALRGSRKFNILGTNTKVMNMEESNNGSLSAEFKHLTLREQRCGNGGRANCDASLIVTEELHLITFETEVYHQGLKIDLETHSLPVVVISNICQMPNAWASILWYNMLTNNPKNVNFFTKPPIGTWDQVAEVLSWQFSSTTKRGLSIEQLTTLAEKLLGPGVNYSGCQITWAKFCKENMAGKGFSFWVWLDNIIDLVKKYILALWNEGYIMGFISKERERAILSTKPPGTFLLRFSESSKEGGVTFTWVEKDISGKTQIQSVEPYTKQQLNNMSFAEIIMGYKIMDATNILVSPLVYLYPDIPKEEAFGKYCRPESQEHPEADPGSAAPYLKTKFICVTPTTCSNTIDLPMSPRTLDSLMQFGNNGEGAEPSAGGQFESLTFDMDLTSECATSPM

`O=C(c1ccc(Oc2ccccc2)cc1)N(Cc1ccc(C2CCCCC2)cc1)c1ccc(P(=O)(O)O)cc1` [Compound 17a, 4-(N-(4-Cyclohexylbenzyl)-4-phenoxybenzamido)phenylphosphonic acid]: the melting point was 182.7 °C (dec.).

In the case of `O=C(c1ccc(Oc2ccccc2)cc1)N(Cc1ccc(C2CCCCC2)cc1)c1ccc(CP(=O)(O)O)cc1` [Compound 17c, 4-(N-(4-Cyclohexylbenzyl)-4-phenoxybenzamido)benzylphosphonic acid], the melting point was 188 °C (dec.).

As to `O=C(c1ccc(Oc2ccccc2)cc1)N(Cc1ccc(C2CCCCC2)cc1)c1cccc(CP(=O)(O)O)c1` [Compound 17d, 3-(N-(4-Cyclohexylbenzyl)-4-phenoxybenzamido)benzylphosphonic acid], the melting point was 97 °C (dec.).

In the case of `O=C(Nc1ccc(CP(=O)(O)O)cc1)c1ccc(Oc2ccccc2)cc1` [Compound 18c, 4-(4-Phenoxybenzamido)benzylphosphonic acid], the melting point is above 250 °C.

Turning to `COc1ccc(CN(C(=O)c2ccc(Oc3ccccc3)cc2)c2ccc(O)c(C(=O)O)c2)cc1` [Compound 20b, 2-Hydroxy-5-(N-(4-methoxybenzyl)-4-phenoxybenzamido)benzoic acid], the P-STAT3 nuclear accumulation entry in data set [1] is “little effect with concentrations as high as 200 μM”. Further, the “activated STAT3 in nuclear extracts capable of binding the STAT3 DNA binding probe” value in data set [2] is “did not decrease the amount of STAT3 capable of binding DNA”. Also, in data set [3], the “binding of FLAG-STAT3 to HA-STAT3 (co-immunoprecipitation)” value is given as “did not inhibit this binding with concentrations as high as 200 μM”.

Take `Cc1ccc(S(=O)(=O)OCC(=O)Nc2ccc(C(=O)O)c(O)c2)cc1` [Compound S3I-201]: the “antitumor effects in xenografts” value in data set [4] is “exert antitumor effects against human breast and liver cancer xenografts in mouse models”.

Take “Ac-G{pTYR}LPQTV-AAVLLPVLLAAP-NH2 (Ac-G[pY]LPQTVAAVLLPVLLAAP-NH2; SMILES CC(=O)NCC(=O)N[C@@H](Cc1ccc(OP(=O)(O)O)cc1)C(=O)N[C@@H](CC(C)C)C(=O)N1CCC[C@H]1C(=O)N[C@@H](CCC(N)=O)C(=O)N[C@H](C(=O)N[C@H](C(=O)N[C@@H](C)C(=O)N[C@@H](C)C(=O)N[C@H](C(=O)N[C@@H](CC(C)C)C(=O)N[C@@H](CC(C)C)C(=O)N1CCC[C@H]1C(=O)N[C@H](C(=O)N[C@@H](CC(C)C)C(=O)N[C@@H](CC(C)C)C(=O)N[C@@H](C)C(=O)N[C@@H](C)C(=O)N1CCC[C@H]1C(N)=O)C(C)C)C(C)C)C(C)C)[C@@H](C)O) [P-Pep, reference compound]”: in data set [3], the “binding of FLAG-STAT3 to HA-STAT3 (co-immunoprecipitation)” value is listed as “inhibited FLAG-STAT3 from co-immunoprecipitating with HA-STAT3”.
